The results in this text go back to article PMC5095285, “The fungal-specific β-glucan-binding lectin FGB1 alters cell-wall composition and suppresses glucan-triggered immunity in plants” (Nature Communications, 2016).

Each structure is given as a SMILES string.

This test addresses T1, FGB1 (Serendipita indica, UniProt G4TDB9).
T1 construct: gene PIIN_03211; native secreted mature protein purified from P. indica culture filtrate, signal peptide removed; precursor 104 residues; 6,219 Da, non-glycosylated, four disulfide bridges; no tag
In words: isothermal titration calorimetry (VP-ITC). The following applies: in water, 20 °C; single-site model, N=0.854±0.243; printed error exceeds the value (likely exponent misprint); read-out: K (converted). The format is binding. An excerpt: isothermal titration calorimetry (VP-ITC) on FGB1 | The titration of gentiobiose to FGB1 was fitted to a single-side-binding model

T1 sequence (G4TDB9 entry or part of it): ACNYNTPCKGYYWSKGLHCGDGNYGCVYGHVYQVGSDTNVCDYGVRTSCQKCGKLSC

For the compound `OC[C@H]1O[C@@H](OC[C@H]2OC(O)[C@H](O)[C@@H](O)[C@@H]2O)[C@H](O)[C@@H](O)[C@@H]1O` (stereo partly shown) [gentiobiose], the Kd was 11.4 µM.
